The results in this text go back to patent US20240368181A1, “QUINOXALINE DERIVATIVES AND USES THEREOF” (Black Diamond Therapeutics, Inc., priority 2021, published 2024).

As a reminder, the IC50 is the concentration that inhibits the measured activity by half. A higher IC50 goes with a need for much substance.

Format in all cases: cell-based
The subject of assay [1] is RT-112 (FGFR3-Tacc3 fusion) cells. The assay is described as follows: cell proliferation assay (CellTiterGlo), RT-112 cells. The settings on record: Homo sapiens, RT-112, RT112 cells, 72 hours. The procedure, abridged: (§1)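 Luminescent ATP read-out (CellTiterGlo) after exposure to compound at varying concentrations or DMSO vehicle. IC50 derived with vehicle-treated wells set as viable cells.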
A general note: In ATP-based viability assays light output follows the ATP content of the culture.

Assay [2] deals with DMS-114 (FGFR1 overexpression) cells. Kind of assay: cell proliferation assay (CellTiterGlo), DMS-114 cells. Particulars: Homo sapiens, DMS-114, 72 h. The procedure, abridged: as §1
Assay [3] has as its system SNU-16 (FGFR2-amplification) cells. The assay is described as follows: cell proliferation assay (CellTiterGlo), SNU-16 cells. The settings on record: Homo sapiens, 72 hours. A digest of the protocol: as §1
The subject of assay [4] is UM-UC-14 (FGFR3-S249C) cells. The assay is described as follows: cell proliferation assay (CellTiterGlo), UM-UC-14 cells. The settings on record: UMUC14, 72 h. A digest of the protocol: as §1

In the case of `Cc1nc2ccc(Oc3ccc4ncc(-c5cnn(C(C)(C)CC(N)=O)c5)nc4c3Cl)cc2[nH]1` [Compound 282], the half-inhibitory concentration (IC50) in assay [1] was 20 to 100 nM; in assay [2] it was no less than 400 nM; in assay [3] it was 20 to 100 nM; in assay [4] it was 100 to 400 nM.
For the molecule `Cc1nc2ccc(Oc3ccc4ncc(-c5cnn(CCN6C[C@@H]7C[C@H]6CO7)c5)nc4c3Cl)cc2[nH]1` [Compound 225], the IC50 in assay [1] is 20 to 100 nM; in assay [2], no less than 400 nM; in assay [3] it was 20 to 100 nM; in assay [4], 20 to 100 nM.
For the molecule `Cc1nc2ccc(Oc3ccc4ncc(-c5cnn(C6CCN(C(=O)N7CCC7)CC6)c5)nc4c3Cl)cc2[nH]1` [Compound 232], the half-maximal inhibitory concentration (IC50) in assay [1] is 20 to 100 nM; in assay [2] it was no less than 400 nM; in assay [3] it was 20 to 100 nM; in assay [4], 20 to 100 nM.
For the molecule `Cc1nc2ccc(Oc3ccc4ncc(-c5cnn(CC67COC(C6)C7)c5)nc4c3Cl)cc2[nH]1` [Compound 343], the IC50 in assay [1] was less than 20 nM; in assay [2], no less than 400 nM; in assay [3], less than 20 nM; in assay [4], 20 to 100 nM.
Turning to `Cc1nc2ccc(Oc3ccc4ncc(-c5cnn([C@H]6C[C@@H](N7CCOCC7)C6)c5)nc4c3Cl)cc2[nH]1` [Compound 323], the IC50 in assay [1] is 20 to 100 nM; in assay [2] it was no less than 400 nM; in assay [3], less than 20 nM; in assay [4], 20 to 100 nM.
For `Cc1nc2ccc(Oc3ccc4ncc(-c5cnn(C(C)(C)C6CC(F)(F)C6)c5)nc4c3Cl)cc2[nH]1` [Compound 147], the IC50 is 20 to 100 nM in assay [1], no less than 400 nM in assay [2], 100 to 400 nM in assay [3] and 100 to 400 nM in assay [4].
Turning to `Cc1nc2ccc(Oc3ccc4ncc(-c5cnn([C@H]6C[C@@H](N7C[C@H]8C[C@@H]7CO8)C6)c5)nc4c3Cl)cc2[nH]1` [Compound 207], the concentration for half-maximal inhibition (IC50) in assay [1] was in the range of 20 to 100 nM; in assay [2] it was 100 to 400 nM; in assay [3], 20 to 100 nM; in assay [4], 20 to 100 nM.
On to `Cc1nc2ccc(Oc3ccc4ncc(-c5cnn(C6CCN(C7COC7)CC6)c5)nc4c3Cl)cc2[nH]1` [Compound 340], for which the IC50 is less than 20 nM in assay [1], 100 to 400 nM in assay [2], less than 20 nM in assay [3] and 20 to 100 nM in assay [4].
In the case of `Cc1nc2cc(F)c(Oc3ccc4ncc(-c5cnn(CCO)c5)nc4c3Cl)cc2[nH]1` [Compound 247], the IC50 in assay [1] is 20 to 100 nM; in assay [2], no less than 400 nM; in assay [3], 20 to 100 nM; in assay [4], 20 to 100 nM.
For `Cc1nc2ccc(Oc3ccc4ncc(-c5cnn(CC6(O)CC6)c5)nc4c3C3=CC(C)(C)OC3)c(F)c2[nH]1` [Compound 73], the half-maximal inhibitory concentration (IC50) in assay [1] was less than 20 nM; in assay [2] it was 20 to 100 nM; in assay [3], less than 20 nM; in assay [4], less than 20 nM.
Regarding `Cc1nc2ccc(Oc3ccc4ncc(-c5cnn(CC6CC(F)(F)C6)c5)nc4c3C3=CCOC3)c(F)c2[nH]1` [Compound 89], the half-maximal inhibitory concentration (IC50) in assay [1] is 20 to 100 nM; in assay [2], 100 to 400 nM; in assay [3] it was less than 20 nM; in assay [4], 20 to 100 nM.
In the case of `Cc1nc2ccc(Oc3ccc4ncc(-c5cnn(CC(=O)N6CC[C@H](F)C6)c5)nc4c3Cl)cc2[nH]1` [Compound 284], the IC50 in assay [1] is 20 to 100 nM; in assay [2], no less than 400 nM; in assay [3] it was 20 to 100 nM; in assay [4], 20 to 100 nM.
`Cc1nc2ccc(Oc3ccc4ncc(-c5cn(C6CCNCC6)nc5C)nc4c3Cl)cc2[nH]1` [Compound 264]: the IC50 in assay [1] is 20 to 100 nM; in assay [2], 100 to 400 nM; in assay [3], 20 to 100 nM; in assay [4], 20 to 100 nM.
On to `Cc1nc2ccc(Oc3ccc4ncc(-c5cnn(CC6(O)CC6)c5)nc4c3N3CCOCC3)cc2[nH]1` [Compound 75], for which the IC50 is 100 to 400 nM in assay [1], no less than 400 nM in assay [2], 20 to 100 nM in assay [3] and 100 to 400 nM in assay [4].
For `Cc1nc2ccc(Oc3ccc4ncc(-c5cnn(CC6CC(F)(F)C6)c5)nc4c3-c3ccoc3)c(F)c2[nH]1` [Compound 81], the IC50 in assay [1] was less than 20 nM; in assay [2] it was 100 to 400 nM; in assay [3] it was less than 20 nM; in assay [4], less than 20 nM.
Regarding `Cc1nc2ccc(Oc3ccc4ncc(-c5cnn([C@H]6CCNC[C@@H]6F)c5)nc4c3C)cc2[nH]1` [Compound 288], the IC50 in assay [1] is 20 to 100 nM; in assay [2] it was no less than 400 nM; in assay [3], 20 to 100 nM; in assay [4], 20 to 100 nM.
In the case of `Cc1nc2ccc(Oc3ccc4ncc(-c5cnn(CC6(NS(C)(=O)=O)CC6)c5)nc4c3Cl)cc2[nH]1` [Compound 99], the concentration for half-maximal inhibition (IC50) in assay [1] is 100 to 400 nM; in assay [2] it was no less than 400 nM; in assay [3], 100 to 400 nM; in assay [4], no less than 400 nM.
Consider `Cc1nc2ccc(Oc3ccc4ncc(-c5cnn(CC6CCC(N(C)C)CC6)c5)nc4c3Cl)cc2[nH]1` (centres unmarked) [Compound 338], for which the half-maximal inhibitory concentration (IC50) fell in the range of 20 to 100 nM in assay [1], 100 to 400 nM in assay [2], 20 to 100 nM in assay [3] and 20 to 100 nM in assay [4].
As to `Cc1nc2ccc(Oc3ccc4ncc(-c5cnn(C(C)(C)C(=O)N6CCOCC6)c5)nc4c3Cl)cc2[nH]1` [Compound 209], the IC50 in assay [1] is 20 to 100 nM; in assay [2], no less than 400 nM; in assay [3] it was 100 to 400 nM; in assay [4], 100 to 400 nM.
Consider `Cc1nc2ccc(Oc3ccc4ncc(-c5cnn(CCN6C[C@H]7C[C@@H]6CO7)c5)nc4c3Cl)cc2[nH]1` [Compound 234], for which the IC50 is 20 to 100 nM in assay [1], no less than 400 nM in assay [2], 20 to 100 nM in assay [3] and 20 to 100 nM in assay [4].
For `CO[C@H]1CC[C@@H](Cn2cc(-c3cnc4ccc(Oc5ccc6nc(C)[nH]c6c5)c(Cl)c4n3)cn2)CC1` [Compound 336], the concentration for half-maximal inhibition (IC50) in assay [1] was 20 to 100 nM; in assay [2], no less than 400 nM; in assay [3], 20 to 100 nM; in assay [4], 20 to 100 nM.
As for `Cc1nc2ccc(Oc3ccc4ncc(-c5cnn(CC6COCCN6)c5)nc4c3Cl)cc2[nH]1` (centres unmarked) [Compound 246], the IC50 in assay [1] was 20 to 100 nM; in assay [2] it was no less than 400 nM; in assay [3], 20 to 100 nM; in assay [4] it was 20 to 100 nM.
Regarding `Cc1nc2ccc(Oc3ccc4ncc(-c5cnn(C6CN(CC7(F)CC7)C6)c5)nc4c3Cl)cc2[nH]1` [Compound 220], the half-inhibitory concentration (IC50) in assay [1] was 20 to 100 nM; in assay [2], no less than 400 nM; in assay [3] it was 20 to 100 nM; in assay [4], 20 to 100 nM.
For the molecule `Cc1nc2ccc(Oc3ccc4ncc(-c5cnn([C@@H](C)C6CC(F)(F)C6)c5)nc4c3Cl)c(F)c2[nH]1` [Compound 108], the 50% inhibitory concentration (IC50) was 20 to 100 nM in assay [1], 100 to 400 nM in assay [2], less than 20 nM in assay [3] and 20 to 100 nM in assay [4].
As to `CCS(=O)(=O)N1CC(n2cc(-c3cnc4ccc(Oc5ccc6nc(C)[nH]c6c5)c(Cl)c4n3)cn2)C1` [Compound 372], the 50% inhibitory concentration (IC50) is 20 to 100 nM in assay [1], no less than 400 nM in assay [2], 20 to 100 nM in assay [3] and 20 to 100 nM in assay [4].
Take `Cc1nc2ccc(Oc3ccc4ncc(-c5cnn(C6CCNCC6)c5)nc4c3C)cc2[nH]1` [Compound 293]: the concentration for half-maximal inhibition (IC50) was in the range of 20 to 100 nM in assay [1], 100 to 400 nM in assay [2], 20 to 100 nM in assay [3] and 20 to 100 nM in assay [4].
In the case of `Cc1nc2ccc(Oc3ccc4ncc(-c5cnn(CC6CC(F)(F)C6)c5)nc4c3N3CCOC3=O)c(F)c2[nH]1` [Compound 95], the 50% inhibitory concentration (IC50) is 100 to 400 nM in assay [1], no less than 400 nM in assay [2], 100 to 400 nM in assay [3] and no less than 400 nM in assay [4].
As to `Cc1nc2ccc(Oc3ccc4ncc(-c5cnn([C@H]6C[C@H]7CC[C@@H](C6)N7C)c5)nc4c3Cl)cc2[nH]1` [Compound 364], the IC50 is less than 20 nM in assay [1], 100 to 400 nM in assay [2], 20 to 100 nM in assay [3] and less than 20 nM in assay [4].
Consider `Cc1nc2ccc(Oc3ccc4ncc(-c5cnn(CC(=O)N6CC[C@@H](F)C6)c5)nc4c3Cl)cc2[nH]1` [Compound 283], for which the half-inhibitory concentration (IC50) in assay [1] is 20 to 100 nM; in assay [2], no less than 400 nM; in assay [3] it was 20 to 100 nM; in assay [4] it was 20 to 100 nM.
`Cc1nc2ccc(Oc3ccc4ncc(-c5cnn(CC6(C)CCOC6)c5)nc4c3Cl)cc2[nH]1` (centres unmarked) [Compound 357]: the IC50 in assay [1] is 20 to 100 nM; in assay [2], no less than 400 nM; in assay [3], 20 to 100 nM; in assay [4], 20 to 100 nM.
For the molecule `Cc1nc2ccc(Oc3ccc4ncc(-c5cnn(CC(O)C(F)(F)F)c5)nc4c3Cl)c(F)c2[nH]1` (centres unmarked) [Compound 144], the IC50 in assay [1] is 100 to 400 nM; in assay [2], no less than 400 nM; in assay [3] it was 20 to 100 nM; in assay [4] it was no less than 400 nM.
With `Cc1nc2ccc(Oc3ccc4ncc(-c5cnn([C@H]6C[C@@](C)(O)C6)c5)nc4c3Cl)c(F)c2[nH]1` [Compound 151], the IC50 in assay [1] was less than 20 nM; in assay [2], 20 to 100 nM; in assay [3], less than 20 nM; in assay [4], less than 20 nM.
For the molecule `Cc1nc2ccc(Oc3ccc4ncc(-c5cnn(C[C@]67C[C@H](CO6)C7)c5)nc4c3Cl)cc2[nH]1` [Compound 337], the IC50 in assay [1] is 20 to 100 nM; in assay [2], no less than 400 nM; in assay [3] it was 20 to 100 nM; in assay [4], 20 to 100 nM.
For the molecule `Cc1nc2ccc(Oc3ccc4ncc(-c5cnn(CCC6CCN(CC(F)(F)F)CC6)c5)nc4c3Cl)cc2[nH]1` [Compound 296], the IC50 is 20 to 100 nM in assay [1], no less than 400 nM in assay [2], 20 to 100 nM in assay [3] and 20 to 100 nM in assay [4].
On to `Cc1nc2ccc(Oc3ccc4ncc(-c5cnn(CC6CC(N(C)C)C6)c5)nc4c3Cl)cc2[nH]1` (centres unmarked) [Compound 297], for which the 50% inhibitory concentration (IC50) in assay [1] is 20 to 100 nM; in assay [2], no less than 400 nM; in assay [3] it was 20 to 100 nM; in assay [4], 20 to 100 nM.
